From PubChem BioAssay AID1259407 (Chemical Carcinogenesis Research Information System (CCRIS), 2018)
Calls of active or inactive are those of the source. How the calls were made is not given here.

System: CCRIS mutagenicity, Ames/micronucleus/aberration tests
Assay: CCRIS mutagenicity studies
[1] = Test System: AMES SALMONELLA TYPHIMURIUM, Strain/Indicator: TA98, Metabolic Activation: NONE, Method: STANDARD PLATE
[2] = Test System: AMES SALMONELLA TYPHIMURIUM, Strain/Indicator: TA98, Metabolic Activation: RAT, LIVER, S-9, AROCLOR 1254, Method: STANDARD PLATE
[3] = Test System: MOUSE LYMPHOMA, Strain/Indicator: L5178Y (TK+/TK-), Metabolic Activation: RAT, LIVER, S-9, AROCLOR 1254, Method: SUSPENSION/PLATE

SMILES: CN=C=O
- mutagenic call (Test System: AMES SALMONELLA TYPHIMURIUM, Strain/Indicator: TA97A, Metabolic Activation: NONE, Method: PREINCUBATION): inactive; negative
- mutagenic call (Test System: AMES SALMONELLA TYPHIMURIUM, Strain/Indicator: TA97A, Metabolic Activation: RAT, LIVER, S-9, AROCLOR 1254, Method: PREINCUBATION): inactive; negative
- mutagenic call (Test System: AMES SALMONELLA TYPHIMURIUM, Strain/Indicator: TA97A, Metabolic Activation: RAT, LIVER, S-9, BETA-NAPHTHOFLAVONE, Method: PREINCUBATION): inactive; negative
- mutagenic call (Test System: AMES SALMONELLA TYPHIMURIUM, Strain/Indicator: TA97A, Metabolic Activation: RAT, LIVER, S-9, SODIUM PHENOBARBITONE, Method: PREINCUBATION): inactive; negative
- mutagenic call (Test System: AMES SALMONELLA TYPHIMURIUM, Strain/Indicator: TA98, Metabolic Activation: HAMSTER, LIVER, S-9, AROCLOR 1254, Method: STANDARD PLATE): inactive; negative
- mutagenic call (Test System: AMES SALMONELLA TYPHIMURIUM, Strain/Indicator: TA98, Metabolic Activation: NONE, Method: PREINCUBATION): inactive; negative
- mutagenic call [1]: inactive; negative
- mutagenic call (Test System: AMES SALMONELLA TYPHIMURIUM, Strain/Indicator: TA98, Metabolic Activation: RAT, LIVER, S-9, AROCLOR 1254, Method: PREINCUBATION): inactive; negative
- mutagenic call [2]: inactive; negative
- mutagenic call (Test System: AMES SALMONELLA TYPHIMURIUM, Strain/Indicator: TA98, Metabolic Activation: RAT, LIVER, S-9, BETA-NAPHTHOFLAVONE, Method: PREINCUBATION): inactive; negative
- mutagenic call (Test System: AMES SALMONELLA TYPHIMURIUM, Strain/Indicator: TA98, Metabolic Activation: RAT, LIVER, S-9, SODIUM PHENOBARBITONE, Method: PREINCUBATION): inactive; negative
- mutagenic call (Test System: AMES SALMONELLA TYPHIMURIUM, Strain/Indicator: TA100, Metabolic Activation: HAMSTER, LIVER, S-9, AROCLOR 1254, Method: STANDARD PLATE): inactive; negative
- mutagenic call (Test System: AMES SALMONELLA TYPHIMURIUM, Strain/Indicator: TA100, Metabolic Activation: NONE, Method: STANDARD PLATE): inactive; negative
- mutagenic call (Test System: AMES SALMONELLA TYPHIMURIUM, Strain/Indicator: TA100, Metabolic Activation: RAT, LIVER, S-9, AROCLOR 1254, Method: PREINCUBATION): inactive; negative
- mutagenic call (Test System: AMES SALMONELLA TYPHIMURIUM, Strain/Indicator: TA100, Metabolic Activation: RAT, LIVER, S-9, AROCLOR 1254, Method: STANDARD PLATE): inactive; negative
- mutagenic call (Test System: AMES SALMONELLA TYPHIMURIUM, Strain/Indicator: TA100, Metabolic Activation: RAT, LIVER, S-9, BETA-NAPHTHOFLAVONE, Method: PREINCUBATION): inactive; negative
- mutagenic call (Test System: AMES SALMONELLA TYPHIMURIUM, Strain/Indicator: TA100, Metabolic Activation: RAT, LIVER, S-9, SODIUM PHENOBARBITONE, Method: PREINCUBATION): inactive; negative
- mutagenic call (Test System: AMES SALMONELLA TYPHIMURIUM, Strain/Indicator: TA102, Metabolic Activation: NONE, Method: PREINCUBATION): inactive; negative
- mutagenic call (Test System: AMES SALMONELLA TYPHIMURIUM, Strain/Indicator: TA102, Metabolic Activation: RAT, LIVER, S-9, AROCLOR 1254, Method: PREINCUBATION): inactive; negative
- mutagenic call (Test System: AMES SALMONELLA TYPHIMURIUM, Strain/Indicator: TA102, Metabolic Activation: RAT, LIVER, S-9, BETA-NAPHTHOFLAVONE, Method: PREINCUBATION): inactive; negative
- mutagenic call (Test System: AMES SALMONELLA TYPHIMURIUM, Strain/Indicator: TA102, Metabolic Activation: RAT, LIVER, S-9, SODIUM PHENOBARBITONE, Method: PREINCUBATION): inactive; negative
- mutagenic call (Test System: AMES SALMONELLA TYPHIMURIUM, Strain/Indicator: TA104, Metabolic Activation: RAT, LIVER, S-9, AROCLOR 1254, Method: PREINCUBATION): inactive; negative
- mutagenic call (Test System: AMES SALMONELLA TYPHIMURIUM, Strain/Indicator: TA104, Metabolic Activation: RAT, LIVER, S-9, BETA-NAPHTHOFLAVONE, Method: PREINCUBATION): inactive; negative
- mutagenic call (Test System: AMES SALMONELLA TYPHIMURIUM, Strain/Indicator: TA104, Metabolic Activation: RAT, LIVER, S-9, SODIUM PHENOBARBITONE, Method: PREINCUBATION): inactive; negative
- mutagenic call (Test System: AMES SALMONELLA TYPHIMURIUM, Strain/Indicator: TA1535, Metabolic Activation: HAMSTER, LIVER, S-9, AROCLOR 1254, Method: STANDARD PLATE): inactive; negative
- mutagenic call (Test System: AMES SALMONELLA TYPHIMURIUM, Strain/Indicator: TA1535, Metabolic Activation: NONE, Method: STANDARD PLATE): inactive; negative
- mutagenic call (Test System: AMES SALMONELLA TYPHIMURIUM, Strain/Indicator: TA1535, Metabolic Activation: RAT, LIVER, S-9, AROCLOR 1254, Method: STANDARD PLATE): inactive; negative
- mutagenic call (Test System: AMES SALMONELLA TYPHIMURIUM, Strain/Indicator: TA1537, Metabolic Activation: HAMSTER, LIVER, S-9, AROCLOR 1254, Method: STANDARD PLATE): inactive; negative
- mutagenic call (Test System: AMES SALMONELLA TYPHIMURIUM, Strain/Indicator: TA1537, Metabolic Activation: NONE, Method: STANDARD PLATE): inactive; negative
- mutagenic call (Test System: AMES SALMONELLA TYPHIMURIUM, Strain/Indicator: TA1537, Metabolic Activation: RAT, LIVER, S-9, AROCLOR 1254, Method: STANDARD PLATE): inactive; negative
- mutagenic call (Test System: AMES SALMONELLA TYPHIMURIUM, Strain/Indicator: TA1538, Metabolic Activation: HAMSTER, LIVER, S-9, AROCLOR 1254, Method: STANDARD PLATE): inactive; negative
- mutagenic call (Test System: AMES SALMONELLA TYPHIMURIUM, Strain/Indicator: TA1538, Metabolic Activation: NONE, Method: STANDARD PLATE): inactive; negative
- mutagenic call (Test System: AMES SALMONELLA TYPHIMURIUM, Strain/Indicator: TA1538, Metabolic Activation: RAT, LIVER, S-9, AROCLOR 1254, Method: STANDARD PLATE): inactive; negative
- mutagenic call [3]: inactive; negative. reevaluation of results: negative

SMILES: COc1cc(Cl)c(Cl)c(Cl)c1O
- mutagenic call (Test System: CHINESE HAMSTER V-79, Strain/Indicator: V-79/6-THIOGUANINE, Metabolic Activation: NONE, Method: STANDARD PLATE): active; positive
- mutagenic call (Test System: CHINESE HAMSTER V-79, Strain/Indicator: V-79/6-THIOGUANINE, Metabolic Activation: PRIMARY RAT HEPATOCYTES, Method: STANDARD PLATE): inactive; negative

SMILES: CN(C)c1nc(N(C)C)nc(N(C)C)n1
- mutagenic call (Test System: AMES SALMONELLA TYPHIMURIUM, Strain/Indicator: TA100, Metabolic Activation: NONE, Method: PREINCUBATION): inactive; negative
- mutagenic call (Test System: AMES SALMONELLA TYPHIMURIUM, Strain/Indicator: TA100, Metabolic Activation: RAT, LIVER, S-9, AROCLOR 1254 (4 OR 10%), Method: PREINCUBATION): inactive; negative
- mutagenic call (Test System: AMES SALMONELLA TYPHIMURIUM, Strain/Indicator: TA100, Metabolic Activation: RAT, LIVER, S-9, AROCLOR 1254 (10%), Method: STANDARD PLATE): inactive; negative
- mutagenic call (Test System: AMES SALMONELLA TYPHIMURIUM, Strain/Indicator: TA100, Metabolic Activation: RAT, LIVER, S-9, AROCLOR 1254 (30%), Method: PREINCUBATION): active; positive

SMILES: O=C1C=C(N2CC2)C(=O)C(N2CC2)=C1N1CC1
- mutagenic call (Test System: UDS RODENT PRIMARY, Strain/Indicator: THY INCORP (NON-S-PHASE), Metabolic Activation: NONE, Method: LIQUID SCINTILLATION COUNTING): active; positive

SMILES: Nc1ccc(Sc2ccc([N+](=O)[O-])cc2)cc1
- mutagenic call [1]: active; positive
- mutagenic call [2]: active; positive

SMILES: Nc1nc(-c2ccccc2)c(Br)c(=O)[nH]1
- mutagenic call (Test System: CHINESE HAMSTER OVARY, Strain/Indicator: CHO (HGPRT), Metabolic Activation: RAT, LIVER, S-9, AROCLOR 1254): active; positive
- mutagenic call (Test System: MOUSE LYMPHOMA, Strain/Indicator: L5178Y (TK+/TK-), Metabolic Activation: NONE, Method: SUSPENSION/PLATE): inactive; negative
- mutagenic call [3]: inactive; negative
